Results from patent US20070254894A1, “Novel small molecules with selective cytotoxicity against human microvascular endothelial cell proliferation” (priority 2006, published 2007).
Where a name gives a salt, the structure may show the parent alone. Read-outs that look alike come from different tables or passages of the source.

What was measured:
[1] = tested on: HMVEC cells stimulated with VEGF 165; test: VEGF driven HMVEC proliferation screen; assay type: cell-based
Method: (§1) HMVEC cells were plated on collagen-coated plates at 2500 cells/well for 24 hours. Various concentrations of test compounds were then added to duplicate plates. […] Anti-FGF antibody (final concentration of 5 μg/mL) was added to four control wells as a standard inhibitor. At the same time the compounds were added, a T-zero plate was generated (Alamar blue was added to a plate and read after three hours). The plates with the compounds were incubated for one hour at 37° C., 5% carbon dioxide. At this point, b-FGF was added (final concentration of 2.5 ng/mL). Tween-20 (10 μL) was added to four additional control wells to represent total death and the plates were returned to the carbon dioxide incubator for 6 days.
The assay was run identically using VEGF in place of b-FGF. The final concentration of VEGF 165, in this mode, was 10 ng/mL. The control inhibitor was anti-VEGF antibody (final concentration of […]). All other conditions were the same.

[2] = tested on: HMVEC cells stimulated with b-FGF; test: b-FGF driven HMVEC proliferation screen; assay type: cell-based
Method: as §1

in vitro = settings: human, primary human dermal fibroblasts, D. Fibroblast LC50, 6 days, Alamar blue
Method: (§2) In parallel with the VEGF and FGF screens, a normal cell toxicity assay was run. Primary Human Dermal Fibroblasts (Clonetics) were plated at 5000 cells/well. After 24 hours various concentrations of test compounds, were added in duplicate plates and 10% Tween-20 was added to four control wells to represent total death. At the same time a T-zero plate was generated. The plates were returned to the carbon dioxide incubator and on day 6 Alamar blue was added and the plates read after 3 hours.
(§3) Using a T-zero plate allows the observation of compounds that cause the cells to become static as well as inhibit growth.

[3] = tested on: Primary Human Dermal Fibroblasts; test: in vitro; settings: read-out: D. Fibroblast LC50, 6 days, Alamar blue
Method: as §2, §3

[4] = Homo sapiens, HMVEC, 144 h, VEGF 165 10 ng/mL, 6 days, Alamar blue, read-out: VEGF LC50
[5] = Homo sapiens, HMVEC, 144 h, b-FGF 2.5 ng/mL, 6 days, Alamar blue, read-out: b-FGF LC50

Structure (SMILES) | CC50 [1, 4] | CC50 [2, 5] | CC50 at 6 days (in vitro) | further results
Cc1cc(NC(=O)c2ccccn2)c2ncccc2c1Br [Compound 16, pyridine-2-carboxylic acid (5-bromo-6-methyl-quinolin-8-yl)-amide] | 0.38 µM | 0.38 µM | > 10 µM | 
O=C(Nc1cccc2cccnc12)c1cc(Cl)ccn1 [Compound 22, 4-chloropyridine-2-carboxylic acid quinolin-8-ylamide] | 0.1 µM | 0.13 µM | > 10 µM | 
O=C(Nc1cccc2cccnc12)c1cc(Sc2ccccc2)ccn1 [Compound 31, 4-phenylsulfanylpyridine-2-carboxylic acid quinolin-8-ylamide] | 0.17 µM | 0.15 µM | > 10 µM | 
O=C(Nc1cccc2cccnc12)c1cc(Oc2ccccc2)ccn1 [Compound 32, 4-phenoxypyridine-2-carboxylic acid quinolin-8-ylamide] | 1.1 µM | 1.8 µM | > 10 µM | 
O=C(Nc1cccc2cccnc12)c1ncccc1OCc1ccccc1 [Compound 47, 3-benzyloxypyridine-2-carboxylic acid quinolin-8-ylamide] | 0.28 µM | 0.4 µM | > 10 µM | 
Cc1cccnc1C(=O)Nc1ccc(N2CCOCC2)c2cccnc12 [Compound 50] | 0.11 µM | 0.074 µM | > 10 µM | 
O=C(Nc1ccc(N2CCOCC2)c2cccnc12)c1cc(Cl)ccn1 [Compound 51] | 0.22 µM | 0.23 µM | > 10 µM | 
COc1cc(NC(=O)c2cc(Cl)ccn2)c2ncccc2c1 [Compound 52] | 0.093 µM | 0.085 µM | > 10 µM | 
COc1cc(NC(=O)c2cc(N3CCOCC3)ccn2)c2ncccc2c1 [Compound 53] | 0.03 µM | 0.028 µM | > 10 µM | 
CN(C)CC(=O)Nc1cccc2cccnc12 [Compound 55, 2-dimethylamino-N-quinolin-8-yl-acetamide] | 0.63 µM | 0.59 µM | > 10 µM | 
O=C(CN1CCCC1)Nc1cccc2cccnc12 [Compound 56] | 1.3 µM | 1.4 µM | > 10 µM | 
O=C(Nc1cccc2cccnc12)[C@@H]1CCCN1 [Compound 57, (S)-pyrrolidine-2-carboxylic acid quinolin-8-ylamide] | 1.3 µM | 1.2 µM | > 10 µM | 
CN(C)[C@@H](Cc1ccccc1)C(=O)Nc1cccc2cccnc12 [Compound 59] | 1.2 µM | 1.1 µM | > 10 µM | 
C[C@@H](C(=O)Nc1cccc2cccnc12)N(C)C [Compound 60] | 0.73 µM | 0.52 µM | > 10 µM | 
O=C(Nc1cccc2cccnc12)[C@@H]1CCCN1CC1CC1 [Compound 61] | 1.5 µM | 1.5 µM | > 10 µM | 
CCCN1CCC[C@H]1C(=O)Nc1cccc2cccnc12 [Compound 62] | 1.3 µM | 1.2 µM | > 10 µM | 
CC(C)CN1CCC[C@H]1C(=O)Nc1cccc2cccnc12 [Compound 63] | 5.5 µM | 4.4 µM | > 10 µM | 
CCN(C)c1c(NC(=O)c2ccccn2)ccc(Cl)c1Cl [Compound 92] |  |  |  | CC50 [1]: 8.2 µM; CC50 [2]: 7.9 µM; CC50 [3]: > 10 µM
CN1CCN(c2ccnc(C(=O)Nc3cccc4cccnc34)c2)CC1 [Compound 100, 4-(4-methylpiperazin-1-yl)pyridine-2-carboxylic acid quinolin-8-ylamide trifluoroacetate salt] | 0.018 µM | 0.019 µM |  | CC50 ([3]; trifluoroacetate salt): 2.9 µM
CN1CCN(c2ccnc(C(=O)Nc3cccc4cccnc34)c2)CC1 [Compound 101] |  |  |  | CC50 ([1]; VEGF 165 10 ng/mL, 6 days, Alamar blue, read-out: VEGF LC50): 0.015 µM; CC50 ([2]; b-FGF 2.5 ng/mL, 6 days, Alamar blue, read-out: b-FGF LC50): 0.014 µM; CC50 [3]: > 10 µM
CN1CCC[C@H]1C(=O)Nc1cccc2cccnc12 [Compound 108, (S)-1-methyl-pyrrolidine-2-carboxylic acid quinolin-8-ylamide L-tartrate salt] |  |  |  | CC50 ([1]; VEGF 165 10 ng/mL, 6 days, Alamar blue, L-tartrate salt, read-out: VEGF LC50): 0.29 µM; CC50 ([2]; b-FGF 2.5 ng/mL, 6 days, Alamar blue, L-tartrate salt, read-out: b-FGF LC50): 0.22 µM; CC50 [3]: > 10 µM
